Read-outs that look alike come from different tables or passages of the source.
Experiments:
[1] = physchem; assay type: physicochemical; settings: for Kpart compared with maltol (compound and its 2:1 zinc complex): in words
Method: A good indication of the physical properties of a ligand-providing compound and of an zinc complex in this respect is provided by the value of the partition coefficient (Kpart)obtained on partition between n-octanol and Tris hydrochloride (20 mM, pH 7.4; Tris representing 2-amino-2 hydroxymethylpropane 1,3-diol) at 20° C. and expressed as the ratio (concentration in organic phase)/(concentration in aqueous phase). Preferred complexes show a value of Kpart for each ligand-providing compound of above 0.02 or 0.05 but less than 3.0, especially of above 0.2 but less than 1.0, together with a value of Kpart for the 2:1 zinc(II) complex of above 0.02 but less than 6.0, especially of 0.05 or 0.1 to 1.0. The value of Kpart for maltol is 0.66 and for the neutral 2:1 maltol:zinc complex is 0.11 which values lie in the especially preferred ranges. It will be appreciated, however, that the wide range of ligands which may be present in zinc complexes according to the present invention allows the preparation of complexes having partition coefficients lying throughout the entire ranges given. Thus, for example, a 2:1 complex having a higher partition coefficient than 0.1 may be obtained by using maltol as one ligand and another compound as the second ligand. Alternatively, higher partition coefficients may be obtained, if desired, by the use of hydroxypyrone compounds containing additional and/or larger aliphatic hydrocarbon group substituents on the ring.
Partition data on zinc complexes and on ligand-providing compounds
The partition coefficient Kpart, being the ratio (concentration in n-octanol)/(concentration in aqueous phase) on partition between n-octanol and aqueous tris hydrochloride (20 mM, pH 7.4; Tris represents 2-amino-2-hydroxymethylpropane 1,3-diol), is measured at 20° C. for zinc complexes containing various ligands and for their corresponding ligand-providing compounds as listed in Table 1. In the case of certain of the complexes the partition coefficient for the 2:1 ligand:zinc(II) complex is also measured in the presence of various amounts of the metal-free ligand-providing compound in excess of a b 1:2 zinc(II):compound ratio.
In each case, the material is dissolved initially in the aqueous Tris hydrochloride at a concentration of 10^-4 M in relation to zinc. The zinc complexes radiolabelled with ^65 Zn are prepared in situ in the buffer by the addition of ^65 Zn labelled ZnCl2 to an appropriate amount of the metal-free ligand-providing compound and subsequent adjustment of the pH to 7.4 by the addition of Tris free base. Acid washed glassware is used throughout and, following mixing of 5 ml of the 10^-4 M aqueous solution with 5 ml of n-octanol for 1 minute, the aqueous n-octanol mixture is centrifuged at 1,000 g for 30 seconds. […]

[2] = recognised property; in words; cited from earlier work
[3] = test system: everted rat jejunum
[4] = test system: inverted rat jejunal sac; assay type: in vitro ADME, rat (male Sprague Dawley); settings: 37° C., up to 1 hour, Krebs Ringer buffer
Source text: In the case of the hydroxypyrone ligands it will be seen that the uptake again increases with the increase in the amount of free compound which is present as a result of an increase in the amount of the 2:1 complex which is present.

[5] = test system: human erythrocytes; assay type: in vitro ADME; settings: not told
Method: The zinc complex was formed in situ in the buffered solution using ^65 Zn labelled ZnSO4 at a concentration of 0.25 mM together with maltol or ethylpyromeconic acid in a molar ratio of zinc:compound of 1:0, 1:2, 1:5, 1:10 or 1:20, i.e. the concentration of the ligand-providing compound being 0, 0.5, 1.25, 2.5 or 5 mM, respectively. The proportions of 1:2, 1:5, 1:10 and 1:20 provide an increasing amount of the neutral 2:1 zinc(II) complex together with varying amounts of the free compound as explained in Example 4, a small amount of Tris free base (to about 2 mM) being added to avoid an acid pH on reaction to form the complex.
It will be seen that the uptake increases with an increase in the amount of free compound present as the proportion of zinc present as the 2:1 ligand:zinc(II) complex is increased through the mass action effect.

[6] = in words
[7] = test system: apotransferrin; assay: Ability of zinc complexes to donate zinc to apotransferrin; assay type: biochemical; settings: apotransferrin 10^-4 M, ZnSO4 10^-4 M with 10 molar proportion of maltol, pH 7.4, 37° C., 10 minutes
Method: Apotransferrin (10^-4 M) and the ^65 Zn radiolabelled zinc complex of maltol (the complex being prepared in situ in the buffer using ^65 Zn radiolabelled ZnSO4 at a concentration of 10^-4 M and a 10 molar proportion of maltol) were incubated together in Tris hydrochloride (50 mM, buffered to pH 7.4) at 37° C. for 10 minutes when a 1 ml aliquot was removed from the medium and added to a PD10 column. 0.5 ml fractions were collected directly into scintillation vials for counting.

Which “Kpart compared with maltol (compound and its 2:1 zinc complex)” value [1] does the source give for `CCc1occc(=O)c1O` [ethylpyromeconic acid, 2-ethyl-3-hydroxy-4-pyrone, reference compound] here?
The value was “higher than those for maltol”.

What about the logD ([1]; n-octanol/tris buffer, pH 7.4) of the same compound?
Its logD is -0.125.

With `O=S(=O)([O-])[O-].[Zn+2]` [zinc sulphate] as the compound, how does the emetic property [2] read?
Its emetic property is “recognised emetics”.

What does the source list for `[Zn+2]` [zinc]?
non-specific binding to the mucosal surface [3]: rapidly removed from the incubation medium by binding to the mucosal surface; permeation [3]: little permeation occurs

With `CCn1cccc(O)c1=O.[Zn]` [zinc 1-ethyl-3-hydroxypyrid-2-one] as the compound, how does the “Uptake of zinc into serosal compartment of rat jejunal sac” value ([4]; Zinc:compound 1:2) read?
The value was 36.4 n. mole.

What about the “Uptake of zinc into serosal compartment of rat jejunal sac” value ([4]; Zinc:compound 1:10) of the same compound?
Its value is 24.2 n. mole.

With `CC(=O)[O-].CC(=O)[O-].[Zn+2]` [zinc acetate] as the compound, how does the emetic property [2] read?
Its emetic property is “recognised emetics”.

For `Cc1occc(=O)c1O` [maltol, 3-hydroxy-2-methyl-4-pyrone, reference compound], which “Free compound Kpart” value ([1]; free ligand-providing compound, n-octanol/Tris hydrochloride 20 mM pH 7.4, 20° C.) is on record?
Its value is 0.66.

Which results are given for `CCc1occc(=O)c1[O-].CCc1occc(=O)c1[O-].[Zn+2]` [zinc ethylpyromeconic acid]?
uptake of the 2:1 complex in tests on the permeation of erythrocytes [5]: greater uptake; Kpart compared with maltol (compound and its 2:1 zinc complex) [1]: higher than those for maltol

With `Cc1occc(=O)c1O.[Zn]` [zinc maltol] as the compound, how does the lability [6] read?
Its lability is “extremely labile”.

And the “zinc removed from the zinc complex” value [7]?
The value was “over 95%”.

And the “inhibition of the uptake of zinc” value [3]?
The value was “no inhibition on the uptake of zinc”.

Reference: US4665064A, “Pharmaceutical compositions and methods for increasing zinc levels” (National Research Development Corporation, priority 1983, dated 1987)
